In experiment [1] the target is T1, human carbonic anhydrase IX (hCAIX-Fc) (Homo sapiens, UniProt Q16790).
T1 construct: purchased SinoBliological (Sino Biological) 10107-H02H
Put plainly: Surface plasmon resonance assay with hCAIX-Fc. Particulars: 25° C.; for t1/2 category (activity): SPR dissociation half-life, hCAIX-Fc; for Kd: SPR, hCAIX-Fc captured, read-out: pKD category (activity) (converted). Format: binding. On the procedure: Surface plasmon resonance (SPR) studies were performed using a Biacore™ T200 SPR system (GE Healthcare Life Sciences). Briefly, polarized light is directed towards a gold-labeled sensor surface, and minimum intensity reflected light is detected. The angle of reflected light changes as molecules bind and dissociate.
Fc-fusion protein of human carbonic anhydrase IX (hCAIX-Fc, SinoBliological, Cat #10107-H02H) was captured on a Fc-capture chip (Biacore™ CM5 sensor chip coated with ˜300 RU of an Fc-binding peptide). Recombinant carbonic anydrase was diluted in Running Buffer (PBST, 0.1% DMSO) to a final concentration 100 or 200 nM and than flushed over the Fc-capture chip to immobilized ˜1000 RUs.
Stock solutions of test compounds were prepared by dissolving each compound in DMSO. DMSO stock solution were diluted 1:1000 in Running Buffer without DMSO. Further sequencial dilutions were made with Running Buffer containing 0.1% DMSO. SPR binding analyses were performed in Single Cycle Kinetic (SCK) mode at 25° C. Flow cell coated with the Fc-binding peptide only served as reference flowcell. After each SCK run, carbonic andydrase IX was removed with 10 mM glycine buffer, pH 1.5.
In between every three SCK measurements, a blank run with Running Buffer instead of test compound was included to correct for baseline drifts (double blanking methods).
Table 11 describes the protocol steps for Fc-fusion target capturing and assessment of the binding kinetics.
For each test compound, SPR raw data in the form of resonance units (RU) were plotted as sensorgrams using the Biacore™ T200 control software. The signal from the blank sensorgram was subtracted from that of the test compound sensorgram (blank corrected). The blank corrected sensorgram was corrected for baseline drift by subtracting the sensorgram of a SCK run without the test compound (running buffer only). The association rate (kon), dissociation rate (koff), dissociation constant (KD), and t1/2 were calculated from Blank-normalized SPR data using the 1:1 Langmuir binding model from the Biacore™ T200 evaluation software. Raw data and fit results were imported as text files in IDBS. The pKD value (negative decadic logarithm of dissociation constant) was calculated in the IDBS excel template.

In experiment [2] the target is T2, CAIX-expressing human HT-29 colorectal cancer cells (Homo sapiens, UniProt Q16790).
T2 construct: CAIX-expressing human HT-29 colorectal cancer cells; host or cells: HT-29 human colorectal cancer cells
Put plainly: FACS binding assay (IC50 determination, competition with tracer 3BP-2776 or 3BP-4149). As to conditions: 4° C., 1 hour, read-out: pIC50 category (activity) (converted). Summed up: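 HT-29 cells in FACS buffer (PBS, 1% FCS) at 500.000 cells/ml were exposed to compounds competing with a labelled tracer, with biotinylated compounds detected by 1 μg/mL APC-streptavidin for 30 min on ice. APC/Cy5 median fluorescence was read by flow cytometry and IC50 derived by 4PL fit.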

Setting [3] is: FACS competition on HT-29 cells, Tracer ID 3BP-2776 (10 nM, biotin-labeled).
Setting [4] is: FACS binding assay, HT-29 cells, competition with tracer 3BP-4149 (3 nM, Cy5-labeled).
[5] abbreviates: FACS binding assay, HT-29 cells, competition with tracer 3BP-2776 (10 nM, biotin-labeled).

The structures appear in SMILES notation. Like-named read-outs stand apart in the source and are kept apart here. Starred links: 1 amine or outer side, 2 acyl side, 3 side chain; linkers in the order of their positions; H or OH if unused. Positions of bridges follow the written chain, without caps; N, C: chain ends. Non-standard residues stand in square brackets, D forms with d. Residues, ends and D or L forms follow the SMILES beside them. *: point of attachment. X3 = O=C(O)CN1CCN(CC(=O)O)CCN(CC(=O)NCCCOCCOCCOCCCN*)CCN(CC(=O)O)CC1; X23 = NS(=O)(=O)c1cccc(C(=O)Nc2cccc(C[C@H](N[*:1])C(=O)[*:2])c2)c1; X10 = NS(=O)(=O)c1cc(C(=O)Nc2cccc(C[C@H](N[*:1])C(=O)[*:2])c2)cs1; X30 = Cn1ncc(C(=O)Nc2cccc(C[C@H](N[*:1])C(=O)[*:2])c2)c1C#N; DOTA = O=C(O)CN1CCN(CC(=O)O)CCN(CC(=O)*)CCN(CC(=O)O)CC1; Benzoyl(4-SO2NH2) = NS(=O)(=O)c1ccc(C(=O)*)cc1; Propanoyl(3-SO2NH2) = NS(=O)(=O)CCC(=O)*; Phe(4-NH2) = Nc1ccc(C[C@H](N)C(=O)O)cc1; mXylylene = c1cc(C[*:1])cc(C[*:2])c1; X18 = NS(=O)(=O)c1ccc(C(=O)*)nc1; X2 = O=C(CN1CCC(N[*:1])CC1)[*:2]; X1 = O=C(CN1CCN([*:1])CC1)[*:2]; Suc = O=C(CCC(=O)[*:2])[*:1]; dPip = O=C(O)[C@H]1CCCCN1; Dap = NC[C@H](N)C(=O)O; GABA = NCCCC(=O)O

From patent publication US20250339569A1, “CARBONIC ANHYDRASE IX LIGANDS” (priority 2021, published 2025) come the findings set out here.

In the case of `CC(C)C[C@@H]1NC(=O)[C@H](Cc2c[nH]c3ccccc23)NC(=O)[C@H](CC(=O)O)NC(=O)[C@@H](C)NC(=O)[C@H](CCC(=O)O)NC(=O)[C@@H](NC(=O)[C@H](Cc2ccc(O)cc2)NC(=O)[C@@H](NC(=O)CCC(=O)NCCCOCCOCCOCCCNC(=O)CN2CCN(CC(=O)O)CCN(CC(=O)O)CCN(CC(=O)O)CC2)C(C)C)CSCc2cccc(c2)CSC[C@@H](C(N)=O)NC(=O)[C@H](C)NC(=O)[C@H](Cc2c[nH]c3ccccc23)NC(=O)[C@H]([C@@H](C)O)NC1=O` [3BP-3279] ({X3-Suc}-VYCE[dA]DWLTWAC-NH2; linker 3-12 via mXylylene), in experiment [1], the “t1/2 category (activity)” value is “B (t1/2 between 5.1 and 15.0 minutes)”; the Kd was < 10 nM. Moreover, the IC50 in experiment [2] (setting [3]) was < 10 nM.
For the compound `CC(C)C[C@@H]1NC(=O)[C@H](Cc2cccc(NC(=O)c3cnn(C)c3C#N)c2)NC(=O)[C@H](CC(=O)O)NC(=O)[C@H]2CCCN2C(=O)[C@H](CCC(=O)O)NC(=O)[C@@H](NC(=O)[C@H](Cc2ccc(O)cc2)NC(=O)[C@@H](NC(=O)CN2CCC(NC(=O)CN3CCN(CC(=O)O)CCN(CC(=O)O)CCN(CC(=O)O)CC3)CC2)C(C)C)CSCc2cccc(c2)CSC[C@@H](C(N)=O)NC(=O)[C@H](CO)NC(=O)[C@H](Cc2c[nH]c3ccccc23)NC(=O)[C@H]([C@@H](C)O)NC1=O` [3BP-4305] ({DOTA}-[X2]VYCE[dP]D[X30]LTWSC-NH2; linker 4-13 via mXylylene), in experiment [1], the “t1/2 category (activity)” value is on record as “D (t1/2≤2.0 minutes)” and the Kd is 10 to 79.4 nM. Besides, in experiment [2] (setting [4]), the IC50 is 10 to 79.4 nM.
For `CC(C)C[C@@H]1NC(=O)[C@H](Cc2ccc(NC(=O)c3ccc(S(N)(=O)=O)cn3)cc2)NC(=O)[C@H](CC(=O)O)NC(=O)[C@H]2CCCN2C(=O)[C@H](CCC(=O)O)NC(=O)[C@@H](NC(=O)[C@H](CCC(N)=O)NC(=O)CN2CCN(C(=O)CN3CCN(CC(=O)O)CCN(CC(=O)O)CCN(CC(=O)O)CC3)CC2)CSCc2cccc(c2)CSC[C@@H](C(N)=O)NC(=O)[C@H](CO)NC(=O)[C@H](Cc2c[nH]c3ccccc23)NC(=O)[C@H]([C@@H](C)O)NC1=O` [3BP-4480] ({DOTA}-[X1]QCE[dP]D[Phe(4-NH2)](X18)LTWSC-NH2; linker 3-12 via mXylylene), in experiment [1], the “t1/2 category (activity)” value is “C (t1/2 between 2.1 and 5.0 minutes)”; the Kd was < 10 nM. Also, the IC50 in experiment [2] (setting [4]) was 10 to 79.4 nM.
For `CC(=O)N[C@H](C(=O)N[C@@H](Cc1ccc(O)cc1)C(=O)N[C@H]1CSCc2cccc(c2)CSC[C@@H](C(N)=O)NC(=O)[C@H](C)NC(=O)[C@H](Cc2c[nH]c3ccccc23)NC(=O)[C@H]([C@@H](C)O)NC(=O)[C@H](CC(C)C)NC(=O)[C@H](Cc2c[nH]c3ccccc23)NC(=O)[C@H](CC(=O)O)NC(=O)[C@H]2CCCCN2C(=O)[C@H](CCC(=O)O)NC1=O)C(C)C` [3BP-3283] (Ac-VYCE[dPip]DWLTWAC-NH2; linker 3-12 via mXylylene), the Kd in experiment [1] was < 10 nM. Besides, in experiment [2] (setting [3]), the IC50 was < 10 nM.
For the compound `CC(C)C[C@@H]1NC(=O)[C@H](Cc2cccc(NC(=O)CCCC(=O)NO)c2)NC(=O)[C@H](CC(=O)O)NC(=O)[C@H]2CCCN2C(=O)[C@H](CCC(=O)O)NC(=O)[C@@H](NC(=O)[C@H](CCC(N)=O)NC(=O)CN2CCN(C(=O)CN3CCN(CC(=O)O)CCN(CC(=O)O)CCN(CC(=O)O)CC3)CC2)CSCc2cccc(c2)CSC[C@@H](C(N)=O)NC(=O)[C@H](CO)NC(=O)[C@H](Cc2c[nH]c3ccccc23)NC(=O)[C@H]([C@@H](C)O)NC1=O` [3BP-4515], in experiment [1], the “t1/2 category (activity)” value is “C (t1/2 between 2.1 and 5.0 minutes)”; the Kd was < 10 nM. Further, the IC50 in experiment [2] (setting [5]) is 10 to 79.4 nM.
Turning to `CC(C)C[C@@H]1NC(=O)[C@H](Cc2ccc(NC(=O)CCS(N)(=O)=O)cc2)NC(=O)[C@H](CC(=O)O)NC(=O)[C@H]2CCCN2C(=O)[C@H](CCC(=O)O)NC(=O)[C@@H](NC(=O)[C@H](CCC(N)=O)NC(=O)CN2CCN(C(=O)CN3CCN(CC(=O)O)CCN(CC(=O)O)CCN(CC(=O)O)CC3)CC2)CSCc2cccc(c2)CSC[C@@H](C(N)=O)NC(=O)[C@H](CO)NC(=O)[C@H](Cc2c[nH]c3ccccc23)NC(=O)[C@H]([C@@H](C)O)NC1=O` [3BP-4500] ({DOTA}-[X1]QCE[dP]D[Phe(4-NH2)](Propanoyl(3-SO2NH2))LTWSC-NH2; linker 3-12 via mXylylene), in experiment [1], the “t1/2 category (activity)” value was “A (t1/2>15.0 minutes)” and the Kd was < 10 nM. Also, the IC50 in experiment [2] (setting [5]) was < 10 nM.
Take `CC(C)C[C@@H]1NC(=O)[C@H](Cc2cccc(NC(=O)c3csc(S(N)(=O)=O)c3)c2)NC(=O)[C@H](CC(=O)O)NC(=O)[C@H]2CCCN2C(=O)[C@H](CCC(=O)O)NC(=O)[C@@H](NC(=O)[C@H](Cc2ccc(O)cc2)NC(=O)[C@@H](NC(=O)CN2CCC(NC(=O)CN3CCN(CC(=O)O)CCN(CC(=O)O)CCN(CC(=O)O)CC3)CC2)C(C)C)CSCc2cccc(c2)CSC[C@@H](C(N)=O)NC(=O)[C@H](CO)NC(=O)[C@H](Cc2c[nH]c3ccccc23)NC(=O)[C@H]([C@@H](C)O)NC1=O` [3BP-4412] ({DOTA}-[X2]VYCE[dP]D[X10]LTWSC-NH2; linker 4-13 via mXylylene): in experiment [1], the “t1/2 category (activity)” value was “A (t1/2>15.0 minutes)” and the Kd is < 10 nM. Further, the IC50 in experiment [2] (setting [4]) is < 10 nM.
For `CC(C)C[C@@H]1NC(=O)[C@H](Cc2ccc(NC(=O)c3ccc(S(N)(=O)=O)cc3)cc2)NC(=O)[C@H](CC(=O)O)NC(=O)[C@H]2CCCN2C(=O)[C@H](CCC(=O)O)NC(=O)[C@@H](NC(=O)[C@H](Cc2ccc(O)cc2)NC(=O)[C@@H](NC(=O)CN2CCC(NC(=O)CN3CCN(CC(=O)O)CCN(CC(=O)O)CCN(CC(=O)O)CC3)CC2)C(C)C)CSCc2cccc(c2)CSC[C@@H](C(N)=O)NC(=O)[C@H](CO)NC(=O)[C@H](Cc2c[nH]c3ccccc23)NC(=O)[C@H]([C@@H](C)O)NC1=O` [3BP-4398] ({DOTA}-[X2]VYCE[dP]D[Phe(4-NH2)](Benzoyl(4-SO2NH2))LTWSC-NH2; linker 4-13 via mXylylene), in experiment [1], the “t1/2 category (activity)” value is “C (t1/2 between 2.1 and 5.0 minutes)”; the Kd is < 10 nM. Besides, the IC50 in experiment [2] (setting [4]) is 10 to 79.4 nM.
As to `CC(C)C[C@@H]1NC(=O)[C@H](Cc2cccc(NC(=O)c3cccc(S(N)(=O)=O)c3)c2)NC(=O)[C@H](CC(=O)O)NC(=O)[C@H]2CCCN2C(=O)[C@H](CCC(=O)O)NC(=O)[C@@H](NC(=O)[C@H](Cc2ccc(O)cc2)NC(=O)[C@@H](NC(=O)CN2CCC(NC(=O)CN3CCN(CC(=O)O)CCN(CC(=O)O)CCN(CC(=O)O)CC3)CC2)C(C)C)CSCc2cccc(c2)CSC[C@@H](C(N)=O)NC(=O)[C@H](CO)NC(=O)[C@H](Cc2c[nH]c3ccccc23)NC(=O)[C@H]([C@@H](C)O)NC1=O` [3BP-4409] ({DOTA}-[X2]VYCE[dP]D[X23]LTWSC-NH2; linker 4-13 via mXylylene), in experiment [1], the “t1/2 category (activity)” value was “A (t1/2>15.0 minutes)” and the Kd is < 10 nM. Moreover, in experiment [2] (setting [4]), the IC50 is < 10 nM.
`CC(C)C[C@@H]1NC(=O)[C@H](Cc2c[nH]c3ccccc23)NC(=O)[C@H](CC(=O)O)NC(=O)[C@H]2CCCN2C(=O)[C@H](CCC(=O)O)NC(=O)[C@@H]2CSCc3cccc(c3)CSC[C@@H](C(N)=O)NC(=O)[C@H](CNC(=O)C[C@H](NC(=O)CCCNC(=O)CN3CCN(CC(=O)O)CCN(CC(=O)O)CCN(CC(=O)O)CC3)C(=O)N2)NC(=O)[C@H](Cc2c[nH]c3ccccc23)NC(=O)[C@H]([C@@H](C)O)NC1=O` [3BP-4263] ({DOTA-GABA}-DCE[dP]DWLTW[Dap]C-NH2; lactam 1-10; linker 2-11 via mXylylene): in experiment [1], the “t1/2 category (activity)” value was “C (t1/2 between 2.1 and 5.0 minutes)”; the Kd was < 10 nM. Besides, in experiment [2] (setting [4]), the IC50 is < 10 nM.
